Test results published in the kinase profiling compilation of Christmann-Franck et al. (2016).
Blank lines part the entries; values can stand above or below the compound they belong to.

Key:
RIOK1 (human) = RIOK1 (human) (UniProt Q9BRS2); assay: KINOMEscan competition binding; conditions: compound 10.0 µM
RIOK3 (human) = RIOK3 (human) (UniProt O14730); assay: KINOMEscan competition binding; conditions: compound 10.0 µM
[1] = biological target: TYK2 JH2 pseudokinase (human) (UniProt P29597); assay: KINOMEscan competition binding; conditions: compound 10.0 µM
TYK2 JH2 pseudokinase (human), sequence (P29597 whole entry, looked up): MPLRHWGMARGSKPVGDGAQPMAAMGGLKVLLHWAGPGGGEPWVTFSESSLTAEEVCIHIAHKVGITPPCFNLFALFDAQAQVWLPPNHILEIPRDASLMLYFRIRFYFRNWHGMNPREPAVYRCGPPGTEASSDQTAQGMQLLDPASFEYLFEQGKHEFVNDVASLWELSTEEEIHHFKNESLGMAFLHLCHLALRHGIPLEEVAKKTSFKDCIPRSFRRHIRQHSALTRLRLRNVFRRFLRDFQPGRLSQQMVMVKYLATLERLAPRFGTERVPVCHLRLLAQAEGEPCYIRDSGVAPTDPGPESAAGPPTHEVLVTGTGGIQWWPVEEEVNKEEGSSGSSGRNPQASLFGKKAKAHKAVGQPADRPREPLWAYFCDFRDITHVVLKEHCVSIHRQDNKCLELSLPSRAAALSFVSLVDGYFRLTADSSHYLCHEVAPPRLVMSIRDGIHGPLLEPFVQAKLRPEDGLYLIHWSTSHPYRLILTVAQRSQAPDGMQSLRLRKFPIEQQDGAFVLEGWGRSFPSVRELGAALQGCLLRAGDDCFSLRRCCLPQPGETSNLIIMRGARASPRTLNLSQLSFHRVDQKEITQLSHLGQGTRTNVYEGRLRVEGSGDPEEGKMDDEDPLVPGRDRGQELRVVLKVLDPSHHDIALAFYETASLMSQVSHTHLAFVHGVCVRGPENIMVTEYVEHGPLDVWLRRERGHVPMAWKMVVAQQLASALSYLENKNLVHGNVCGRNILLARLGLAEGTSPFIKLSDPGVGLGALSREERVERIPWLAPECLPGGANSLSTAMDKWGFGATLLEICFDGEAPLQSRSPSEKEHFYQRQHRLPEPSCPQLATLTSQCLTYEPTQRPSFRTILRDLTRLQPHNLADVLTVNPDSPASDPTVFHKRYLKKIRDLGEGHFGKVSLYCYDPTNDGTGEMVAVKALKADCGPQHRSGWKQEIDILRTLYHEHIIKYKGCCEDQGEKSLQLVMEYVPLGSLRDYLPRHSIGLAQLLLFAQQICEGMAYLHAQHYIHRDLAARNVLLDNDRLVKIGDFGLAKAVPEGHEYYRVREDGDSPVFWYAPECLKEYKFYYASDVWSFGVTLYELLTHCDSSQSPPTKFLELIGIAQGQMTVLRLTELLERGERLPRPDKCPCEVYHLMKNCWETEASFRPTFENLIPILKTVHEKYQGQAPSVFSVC

TNK2 (human) = TNK2 (human) (UniProt Q07912); assay: KINOMEscan competition binding; conditions: compound 10.0 µM
[2] = system: KIT (human), P10721 [D816V]; assay: KINOMEscan competition binding; conditions: compound 10.0 µM
CHEK1 (human) = CHEK1 (human) (UniProt O14757); assay: KINOMEscan competition binding; conditions: compound 10.0 µM
TNK1 (human) = TNK1 (human) (UniProt Q13470); assay: KINOMEscan competition binding; conditions: compound 10.0 µM
[3] = system: ABL1 (human), P00519 [F317L]; assay: KINOMEscan competition binding; conditions: compound 10.0 µM
PIP5K1A (human) = PIP5K1A (human) (UniProt Q99755); assay: KINOMEscan competition binding; conditions: compound 10.0 µM
NEK2 (human) = NEK2 (human) (UniProt P51955); assay: KINOMEscan competition binding; conditions: compound 10.0 µM
SLK (human) = SLK (human) (UniProt Q9H2G2); assay: KINOMEscan competition binding; conditions: compound 10.0 µM
[4] = system: FLT3 (human), P36888 [D835H]; assay: KINOMEscan competition binding; conditions: compound 10.0 µM
CSF1R (human) = CSF1R (human) (UniProt P07333); assay: KINOMEscan competition binding; conditions: compound 10.0 µM
FGFR4 (human) = FGFR4 (human) (UniProt P22455); assay: KINOMEscan competition binding; conditions: compound 10.0 µM
FRK (human) = FRK (human) (UniProt P42685); assay: KINOMEscan competition binding; conditions: compound 10.0 µM
[5] = system: ABL1 (human), P00519 [F317I]; assay: KINOMEscan competition binding; conditions: compound 10.0 µM
PLK3 (human) = PLK3 (human) (UniProt Q9H4B4); assay: KINOMEscan competition binding; conditions: compound 10.0 µM
PRKD1 (human) = PRKD1 (human) (UniProt Q15139); assay: KINOMEscan competition binding; conditions: compound 10.0 µM
PRKD3 (human) = PRKD3 (human) (UniProt O94806); assay: KINOMEscan competition binding; conditions: compound 10.0 µM
[6] = system: KIT (human), P10721 [V559D/T670I]; assay: KINOMEscan competition binding; conditions: compound 10.0 µM
BMP2K (human) = BMP2K (human) (UniProt Q9NSY1); assay: KINOMEscan competition binding; conditions: compound 10.0 µM
RPS6KA6 KD2 (human) = RPS6KA6 KD2 (human) (UniProt Q9UK32); assay: KINOMEscan competition binding; conditions: compound 10.0 µM
KIT (human) = KIT (human) (UniProt P10721); assay: KINOMEscan competition binding; conditions: compound 10.0 µM
PDGFRB (human) = PDGFRB (human) (UniProt P09619); assay: KINOMEscan competition binding; conditions: compound 10.0 µM
FLT4 (human) = FLT4 (human) (UniProt P35916); assay: KINOMEscan competition binding; conditions: compound 10.0 µM
FLT4 (human), sequence (P35916 whole entry, looked up): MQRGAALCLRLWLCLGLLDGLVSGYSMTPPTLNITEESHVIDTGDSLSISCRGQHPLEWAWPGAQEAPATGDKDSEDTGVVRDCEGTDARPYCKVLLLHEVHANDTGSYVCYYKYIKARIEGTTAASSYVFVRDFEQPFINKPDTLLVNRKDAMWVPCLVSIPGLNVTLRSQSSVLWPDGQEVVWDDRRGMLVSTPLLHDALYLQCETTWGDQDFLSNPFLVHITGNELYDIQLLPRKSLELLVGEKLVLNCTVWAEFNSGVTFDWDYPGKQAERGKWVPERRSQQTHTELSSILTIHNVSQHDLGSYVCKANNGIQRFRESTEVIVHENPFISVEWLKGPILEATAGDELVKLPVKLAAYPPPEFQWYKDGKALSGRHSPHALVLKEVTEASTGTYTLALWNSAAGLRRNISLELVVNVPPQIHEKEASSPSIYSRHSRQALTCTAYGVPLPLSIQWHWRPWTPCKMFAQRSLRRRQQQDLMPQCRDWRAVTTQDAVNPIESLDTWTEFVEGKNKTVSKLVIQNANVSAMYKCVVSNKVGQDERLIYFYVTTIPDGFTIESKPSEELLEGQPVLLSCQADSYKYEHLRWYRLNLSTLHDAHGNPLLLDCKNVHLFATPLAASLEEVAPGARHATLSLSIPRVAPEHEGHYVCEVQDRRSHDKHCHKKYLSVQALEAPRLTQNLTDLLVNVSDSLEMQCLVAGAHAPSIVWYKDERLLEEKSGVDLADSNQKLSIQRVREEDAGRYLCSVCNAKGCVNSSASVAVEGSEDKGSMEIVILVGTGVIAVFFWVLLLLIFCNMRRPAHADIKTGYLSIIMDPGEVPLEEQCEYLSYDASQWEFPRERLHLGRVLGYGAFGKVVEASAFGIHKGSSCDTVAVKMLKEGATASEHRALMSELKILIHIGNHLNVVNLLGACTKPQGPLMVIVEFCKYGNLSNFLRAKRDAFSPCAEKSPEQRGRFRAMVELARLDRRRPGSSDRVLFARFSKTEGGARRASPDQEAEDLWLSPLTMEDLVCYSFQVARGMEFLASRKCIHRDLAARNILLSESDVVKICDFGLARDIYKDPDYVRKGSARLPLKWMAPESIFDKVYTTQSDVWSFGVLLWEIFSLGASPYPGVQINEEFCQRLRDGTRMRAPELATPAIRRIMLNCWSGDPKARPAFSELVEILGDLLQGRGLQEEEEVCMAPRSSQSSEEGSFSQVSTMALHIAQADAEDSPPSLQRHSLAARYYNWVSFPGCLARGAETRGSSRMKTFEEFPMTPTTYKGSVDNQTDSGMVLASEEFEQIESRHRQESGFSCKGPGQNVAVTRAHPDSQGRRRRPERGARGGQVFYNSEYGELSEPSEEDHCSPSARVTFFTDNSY

STK33 (human) = STK33 (human) (UniProt Q9BYT3); assay: KINOMEscan competition binding; conditions: compound 10.0 µM
FLT3 (human) = FLT3 (human) (UniProt P36888); assay: KINOMEscan competition binding; conditions: compound 10.0 µM
[7] = system: KIT (human), P10721 [V559D/V654A]; assay: KINOMEscan competition binding; conditions: compound 10.0 µM
[8] = system: FLT3 (human), P36888 [K663Q]; assay: KINOMEscan competition binding; conditions: compound 10.0 µM
BLK (human) = BLK (human) (UniProt P51451); assay: KINOMEscan competition binding; conditions: compound 10.0 µM
GAK (human) = GAK (human) (UniProt O14976); assay: KINOMEscan competition binding; conditions: compound 10.0 µM
GAK (human), sequence (O14976 whole entry, looked up): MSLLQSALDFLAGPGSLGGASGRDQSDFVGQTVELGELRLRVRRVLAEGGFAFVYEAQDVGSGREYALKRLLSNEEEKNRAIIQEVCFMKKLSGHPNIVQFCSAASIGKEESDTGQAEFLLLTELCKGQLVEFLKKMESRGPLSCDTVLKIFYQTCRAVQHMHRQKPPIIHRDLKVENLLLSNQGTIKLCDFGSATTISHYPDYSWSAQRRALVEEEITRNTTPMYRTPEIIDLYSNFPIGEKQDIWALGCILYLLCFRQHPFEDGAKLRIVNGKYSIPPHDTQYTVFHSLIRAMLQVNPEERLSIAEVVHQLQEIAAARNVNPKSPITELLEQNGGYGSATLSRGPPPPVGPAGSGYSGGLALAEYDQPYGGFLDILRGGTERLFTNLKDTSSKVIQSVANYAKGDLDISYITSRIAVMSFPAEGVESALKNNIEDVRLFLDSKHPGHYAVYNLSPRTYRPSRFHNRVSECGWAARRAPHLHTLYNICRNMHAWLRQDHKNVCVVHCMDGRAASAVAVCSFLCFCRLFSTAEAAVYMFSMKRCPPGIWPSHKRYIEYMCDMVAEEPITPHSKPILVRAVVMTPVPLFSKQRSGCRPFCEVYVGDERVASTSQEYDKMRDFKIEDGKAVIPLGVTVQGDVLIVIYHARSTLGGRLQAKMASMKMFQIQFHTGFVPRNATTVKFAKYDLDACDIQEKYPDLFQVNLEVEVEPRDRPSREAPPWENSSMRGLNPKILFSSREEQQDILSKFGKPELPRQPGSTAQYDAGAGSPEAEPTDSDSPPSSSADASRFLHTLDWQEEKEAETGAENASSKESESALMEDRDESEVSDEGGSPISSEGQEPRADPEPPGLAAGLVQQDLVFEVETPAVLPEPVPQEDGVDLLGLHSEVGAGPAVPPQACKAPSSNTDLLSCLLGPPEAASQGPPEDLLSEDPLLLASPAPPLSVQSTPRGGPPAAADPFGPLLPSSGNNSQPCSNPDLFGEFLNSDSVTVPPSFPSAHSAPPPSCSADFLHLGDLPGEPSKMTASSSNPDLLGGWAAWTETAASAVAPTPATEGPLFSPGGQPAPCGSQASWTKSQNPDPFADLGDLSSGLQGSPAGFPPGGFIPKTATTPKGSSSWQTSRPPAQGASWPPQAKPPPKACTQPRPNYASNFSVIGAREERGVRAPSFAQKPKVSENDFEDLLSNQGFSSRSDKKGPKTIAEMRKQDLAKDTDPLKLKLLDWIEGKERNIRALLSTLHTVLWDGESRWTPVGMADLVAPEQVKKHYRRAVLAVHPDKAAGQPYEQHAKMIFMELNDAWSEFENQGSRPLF

RPS6KA1 KD2 (human) = RPS6KA1 KD2 (human) (UniProt Q15418); assay: KINOMEscan competition binding; conditions: compound 10.0 µM
[9] = system: KIT (human), P10721 [V559D]; assay: KINOMEscan competition binding; conditions: compound 10.0 µM
[10] = system: EIF2AK4 KD2 (human), Q9P2K8 [S808G]; assay: KINOMEscan competition binding; conditions: compound 10.0 µM
MYLK4 (human) = MYLK4 (human) (UniProt Q86YV6); assay: KINOMEscan competition binding; conditions: compound 10.0 µM
PDGFRA (human) = PDGFRA (human) (UniProt P16234); assay: KINOMEscan competition binding; conditions: compound 10.0 µM
SIK2 (human) = SIK2 (human) (UniProt Q9H0K1); assay: KINOMEscan competition binding; conditions: compound 10.0 µM
DAPK2 (human) = DAPK2 (human) (UniProt Q9UIK4); assay: KINOMEscan competition binding; conditions: compound 10.0 µM
PLK4 (human) = PLK4 (human) (UniProt O00444); assay: KINOMEscan competition binding; conditions: compound 10.0 µM
STK17B (human) = STK17B (human) (UniProt O94768); assay: KINOMEscan competition binding; conditions: compound 10.0 µM
PIM2 (human) [11] = biological target: PIM2 (human) (UniProt Q9P1W9); assay: KINOMEscan competition binding; conditions: compound 10.0 µM
PIM2 (human), sequence (Q9P1W9 whole entry, looked up): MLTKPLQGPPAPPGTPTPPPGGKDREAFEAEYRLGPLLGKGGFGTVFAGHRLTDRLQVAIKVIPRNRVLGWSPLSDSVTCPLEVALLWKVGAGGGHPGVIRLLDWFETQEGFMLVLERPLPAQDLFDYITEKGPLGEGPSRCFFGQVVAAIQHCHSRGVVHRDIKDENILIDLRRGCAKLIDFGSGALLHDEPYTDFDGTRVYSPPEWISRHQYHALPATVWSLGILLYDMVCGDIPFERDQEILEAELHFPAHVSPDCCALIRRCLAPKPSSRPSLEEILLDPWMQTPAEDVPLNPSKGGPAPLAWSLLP

MERTK (human) = MERTK (human) (UniProt Q12866); assay: KINOMEscan competition binding; conditions: compound 10.0 µM
CSNK2A1 (human) = CSNK2A1 (human) (UniProt P68400); assay: KINOMEscan competition binding; conditions: compound 10.0 µM
ALK (human) = ALK (human) (UniProt Q9UM73); assay: KINOMEscan competition binding; conditions: compound 10.0 µM
MAPK10 (human) = MAPK10 (human) (UniProt P53779); assay: KINOMEscan competition binding; conditions: compound 10.0 µM
MAPK14 (human) = MAPK14 (human) (UniProt Q16539); assay: KINOMEscan competition binding; conditions: compound 10.0 µM
CDK16 (human) = CDK16 (human) (UniProt Q00536); assay: KINOMEscan competition binding; conditions: compound 10.0 µM
DAPK3 (human) = DAPK3 (human) (UniProt O43293); assay: KINOMEscan competition binding; conditions: compound 10.0 µM
CSNK2A2 (human) = CSNK2A2 (human) (UniProt P19784); assay: KINOMEscan competition binding; conditions: compound 10.0 µM
MAPK9 (human) = MAPK9 (human) (UniProt P45984); assay: KINOMEscan competition binding; conditions: compound 10.0 µM
AURKC (human) = AURKC (human) (UniProt Q9UQB9); assay: KINOMEscan competition binding; conditions: compound 10.0 µM
AXL (human) = AXL (human) (UniProt P30530); assay: KINOMEscan competition binding; conditions: compound 10.0 µM
HIPK1 (human) = HIPK1 (human) (UniProt Q86Z02); assay: KINOMEscan competition binding; conditions: compound 10.0 µM
PIM1 (human) [12] = biological target: PIM1 (human) (UniProt P11309); assay: KINOMEscan competition binding; conditions: compound 10.0 µM
PIM1 (human), sequence (P11309 whole entry, looked up): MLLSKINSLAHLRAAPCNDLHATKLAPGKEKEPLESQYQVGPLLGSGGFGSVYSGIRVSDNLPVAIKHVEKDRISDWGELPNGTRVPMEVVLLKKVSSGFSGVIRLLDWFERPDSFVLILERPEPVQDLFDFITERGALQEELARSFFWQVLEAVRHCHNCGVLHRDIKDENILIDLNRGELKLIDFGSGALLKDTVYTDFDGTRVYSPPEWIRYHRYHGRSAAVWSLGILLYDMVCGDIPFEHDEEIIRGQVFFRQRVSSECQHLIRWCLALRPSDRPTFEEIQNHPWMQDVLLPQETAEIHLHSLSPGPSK

MAPK8 (human) = MAPK8 (human) (UniProt P45983); assay: KINOMEscan competition binding; conditions: compound 10.0 µM
STK17A (human) = STK17A (human) (UniProt Q9UEE5); assay: KINOMEscan competition binding; conditions: compound 10.0 µM
PIM3 (human) = PIM3 (human) (UniProt Q86V86); assay: KINOMEscan competition binding; conditions: compound 10.0 µM
SRPK3 (human) = SRPK3 (human) (UniProt Q9UPE1); assay: KINOMEscan competition binding; conditions: compound 10.0 µM
NEK7 (human) = NEK7 (human) (UniProt Q8TDX7); assay: KINOMEscan competition binding; conditions: compound 10.0 µM
NEK6 (human) = NEK6 (human) (UniProt Q9HC98); assay: KINOMEscan competition binding; conditions: compound 10.0 µM
TGFBR2 (human) = TGFBR2 (human) (UniProt P37173); assay: KINOMEscan competition binding; conditions: compound 10.0 µM
STK3 (human) = STK3 (human) (UniProt Q13188); assay: KINOMEscan competition binding; conditions: compound 10.0 µM
SRPK1 (human) = SRPK1 (human) (UniProt Q96SB4); assay: KINOMEscan competition binding; conditions: compound 10.0 µM
PIM2 (human) [13] = biological target: PIM2 (human) (UniProt Q9P1W9); assay: SelectScreen, TR FRET
PIM1 (human) [14] = biological target: PIM1 (human) (UniProt P11309); assay: SelectScreen, TR FRET

RIOK3 (human), sequence (O14730 whole entry, looked up): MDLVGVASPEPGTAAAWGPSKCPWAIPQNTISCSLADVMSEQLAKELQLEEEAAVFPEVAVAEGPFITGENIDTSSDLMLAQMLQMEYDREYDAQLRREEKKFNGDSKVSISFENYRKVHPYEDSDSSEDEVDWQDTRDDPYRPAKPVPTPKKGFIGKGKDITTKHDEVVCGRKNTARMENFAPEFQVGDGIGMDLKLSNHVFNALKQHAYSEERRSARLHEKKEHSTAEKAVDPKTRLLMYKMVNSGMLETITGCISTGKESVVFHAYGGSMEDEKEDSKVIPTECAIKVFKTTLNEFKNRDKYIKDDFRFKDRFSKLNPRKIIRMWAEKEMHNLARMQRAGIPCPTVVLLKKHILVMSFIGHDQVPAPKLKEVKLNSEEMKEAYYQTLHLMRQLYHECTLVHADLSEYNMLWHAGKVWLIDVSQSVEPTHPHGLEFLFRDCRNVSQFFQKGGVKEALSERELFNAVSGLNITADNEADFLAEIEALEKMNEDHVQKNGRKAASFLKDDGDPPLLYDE

kinase still bound, per cent of control (RIOK1 (human)): 21%
kinase still bound, per cent of control (RIOK3 (human)): 31%
kinase still bound, per cent of control [1]: 27%
kinase still bound, per cent of control (TNK2 (human)): 8.6%
kinase still bound, per cent of control [2]: 12%
kinase still bound, per cent of control (CHEK1 (human)): 6%
kinase still bound, per cent of control (TNK1 (human)): 25%
kinase still bound, per cent of control [3]: 19%
kinase still bound, per cent of control (PIP5K1A (human)): 11%
kinase still bound, per cent of control (NEK2 (human)): 24%
kinase still bound, per cent of control (SLK (human)): 31%
kinase still bound, per cent of control [4]: 27%
kinase still bound, per cent of control (CSF1R (human)): 0.8%
kinase still bound, per cent of control (FGFR4 (human)): 17%
kinase still bound, per cent of control (FRK (human)): 8.2%
kinase still bound, per cent of control [5]: 13%
kinase still bound, per cent of control (PLK3 (human)): 9.5%
kinase still bound, per cent of control (PRKD1 (human)): 29%
kinase still bound, per cent of control (PRKD3 (human)): 30%
kinase still bound, per cent of control [6]: 33%
kinase still bound, per cent of control (BMP2K (human)): 29%
kinase still bound, per cent of control (RPS6KA6 KD2 (human)): 2%
kinase still bound, per cent of control (KIT (human)): 0%
kinase still bound, per cent of control (PDGFRB (human)): 0.05%
kinase still bound, per cent of control (FLT4 (human)): 33%
kinase still bound, per cent of control (STK33 (human)): 12%
kinase still bound, per cent of control (FLT3 (human)): 11%
kinase still bound, per cent of control [7]: 8.4%
kinase still bound, per cent of control [8]: 19%
kinase still bound, per cent of control (BLK (human)): 23%
kinase still bound, per cent of control (GAK (human)): 0.85%
kinase still bound, per cent of control (RPS6KA1 KD2 (human)): 14%
kinase still bound, per cent of control [9]: 0%
kinase still bound, per cent of control [10]: 21%
kinase still bound, per cent of control (MYLK4 (human)): 7.8%
kinase still bound, per cent of control (PDGFRA (human)): 1.8%
kinase still bound, per cent of control (SIK2 (human)): 18%
SMILES: COc1cc(N2CCN(C)CC2)ccc1Nc1ncc2c(n1)N1CCC[C@H]1CC(=O)N2

kinase still bound, per cent of control (RIOK3 (human)): 30%
kinase still bound, per cent of control (DAPK2 (human)): 17%
kinase still bound, per cent of control [1]: 17%
kinase still bound, per cent of control (PLK4 (human)): 1.6%
kinase still bound, per cent of control (STK17B (human)): 3.6%
kinase still bound, per cent of control (PIM2 (human) [11]): 0.8%
kinase still bound, per cent of control (MERTK (human)): 20%
kinase still bound, per cent of control (CSNK2A1 (human)): 8%
kinase still bound, per cent of control (ALK (human)): 19%
kinase still bound, per cent of control [4]: 34%
kinase still bound, per cent of control (MAPK10 (human)): 30%
kinase still bound, per cent of control (MAPK14 (human)): 33%
kinase still bound, per cent of control (CDK16 (human)): 1.4%
kinase still bound, per cent of control (DAPK3 (human)): 22%
kinase still bound, per cent of control (CSNK2A2 (human)): 12%
kinase still bound, per cent of control (MAPK9 (human)): 9.8%
kinase still bound, per cent of control (AURKC (human)): 27%
kinase still bound, per cent of control (AXL (human)): 29%
kinase still bound, per cent of control (FLT4 (human)): 25%
kinase still bound, per cent of control (HIPK1 (human)): 3.7%
kinase still bound, per cent of control (GAK (human)): 28%
kinase still bound, per cent of control (PIM1 (human) [12]): 3%
kinase still bound, per cent of control (MAPK8 (human)): 30%
kinase still bound, per cent of control (STK17A (human)): 1.8%
kinase still bound, per cent of control (PIM3 (human)): 2.6%
kinase still bound, per cent of control (SRPK3 (human)): 33%
kinase still bound, per cent of control (NEK7 (human)): 27%
kinase still bound, per cent of control (NEK6 (human)): 26%
kinase still bound, per cent of control (TGFBR2 (human)): 14%
kinase still bound, per cent of control (STK3 (human)): 34%
kinase still bound, per cent of control (SRPK1 (human)): 32%
IC50 (PIM2 (human) [13]): 1100 nM
IC50 (PIM1 (human) [14]): 1620 nM
SMILES: O=C1NC(=S)S/C1=C\c1ccc(-c2cccc3ccccc23)o1
